As usually defined, the IC50 is the concentration at which inhibition is half-maximal.

Converted amounts (≈) assume the structure as drawn.

Series [1] has as its system PACA2 pancreatic cancer cells. The series is described as follows: MTT assay, PACA2. The settings on record: Homo sapiens, PaCa-2, 72 h; for cytotoxicity at 100 µg/mL: read-out: MTT cell proliferation mortality assay (%) PACA2; for IC50: read-out: IC50 PACA2. The source says:
(§1) All of the following steps were done in a sterile Laminar flow class II biosafety cabinet (Baker, SG406INT, Sanford, ME, USA). DMEM was used as a suspension medium for breast cancer (MCF7), colorectal cancer (HCT116), prostate cancer (PC3), liver cancer (HePG2), pancreatic cancer (PACA2) and lung cancer (A549), while normal cell line (BJ1) was suspended in DMEM-F12 medium. The selected cell lines were purchased from American Type Culture Collection (ATCC). The media were supplemented with a 1% antimycotic-antibiotic mixture (10,000 µg/ml streptomycin sulfate, 25 µg/ml Amphotericin B, and 10,000 U/ml Potassium Penicillin) and 1% L-glutamine. 10 × 10^4cells/well were seeded in 96 well microtiter plates and incubated for 24 h at 37 ℃ under 5% carbon dioxide using a water-jacketed Carbon dioxide incubator (Sheldon, SCO5A, OR, USA). […] After the incubation time of 72 h, the medium was removed. Afterward, 40 µl MTT salt ([…]) was added to each well and kept for 4 h under the same conditions of 37 °C and 5% carbon dioxide. Finally, 200 μl of 10% Sodium dodecyl sulfate (SDS) in deionized water was added to each well and incubated overnight at 37 °C. The step of SDS addition was done to stop the reaction and dissolve the formed formazan crystals. The absorbance was then measured at a wavelength of 595 nm and the reference wavelength was set at 620 nm using a microplate multi-well reader (Bio-Rad Laboratories Inc., model 3356, California, USA). […] A statistical significance analysis was determined between the samples and the negative control using an independent t-test by SPSS 11 program. Dimethyl sulfoxide (DMSO) was the vehicle that dissolved our synthesized compounds and its concentration in the cells was less than 0.2%. IC50 values were calculated using the GraphPad Prism 6 program. The degree of selectivity of the synthetic compounds was expressed as SI = IC50 of a pure compound in a normal cell line/IC50 of the same pure compound in the cancer cell line, where IC50 is the concentration of the compound required to kill 50% of the cells.

Another series relates to A549 lung cancer cells. The experiment in a line: MTT assay, A549. The following applies: for cytotoxicity at 100 µg/mL: read-out: MTT cell proliferation mortality assay (%) A549, at 100 μg/ml, 72 h.
From the text: as §1
(Tetrazolium assays rely on reduction of a dye to a coloured formazan, in cell work by metabolically active cells.)

Series [2] relates to HCT116 colorectal cancer cells. The experiment in a line: MTT assay, HCT116. The following applies: Homo sapiens, HCT-116, 72 h; for cytotoxicity at 100 µg/mL: read-out: MTT cell proliferation mortality assay (%) HCT116, at 100 μg/ml, 72 h; for IC50: read-out: IC50 HCT116.
From the text: as §1

In series [3] the test system is PC3 prostate cancer cells. The series is described as follows: MTT assay, PC3. The following applies: Homo sapiens, 72 h; for cytotoxicity at 100 µg/mL: read-out: MTT cell proliferation mortality assay (%) PC3, at 100 μg/ml, 72 h; for IC50: read-out: IC50 PC3.
From the text: as §1

A further series relates to MCF7 breast cancer cells. The experiment in a line: MTT assay, MCF7. The settings on record: for IC50 / cytotoxicity at 100 µg/mL: Homo sapiens, MCF7, 72 h; for IC50: read-out: IC50 MCF7.
From the text: as §1

Series [4] can be described thus: MTT assay, normal cell line BJ1. Format: cell-based. The following applies: human, at 100 μg/ml, read-out: MTT cell proliferation mortality assay (%) BJ1.
From the text: as §1

Another series concerns HePG2 liver cancer cells. The experiment in a line: MTT assay, HePG2. The following applies: Homo sapiens, HepG2, 72 h, read-out: MTT cell proliferation mortality assay (%) HePG2.
From the text: as §1

Where [5] appears, read: read-out: MTT cell proliferation mortality assay (%) MCF7.

Take `Clc1ccc(-n2c(Cl)c(-c3ccc(Br)cc3)c3c(Cl)nc(C(Cl)(Cl)Cl)nc32)c(Cl)c1` [Compound 7, 5-(4-bromophenyl)-4,6-dichloro-7-(2,4-dichlorophenyl)-2-(trichloromethyl)-7H-pyrrolo[2,3-d]pyrimidine]: the cytotoxicity at 100 µg/mL was determined as 100% in series [1]; 14.2 ± 0.8% with A549 lung cancer cells (Homo sapiens, A549, 72 h); 100% in series [2]; 54.2 ± 1.6% in series [3]; 100% in the series on MCF7 breast cancer cells (setting [5]). Besides, the IC50 in the series on MCF7 breast cancer cells was 16.2 ± 1.6 µg/mL (≈ 26.8 µM). Besides, the cytotoxicity at 72 h, 100 μg/ml in series [4] came out at 100%.

As for `Clc1ccc(-n2c(Cl)c(-c3ccc(Br)cc3)c3c(N4CCOCC4)ncnc32)c(Cl)c1` [Compound 18a, 4-(5-(4-bromophenyl)-6-chloro-7-(2,4-dichlorophenyl)-7H-pyrrolo[2,3-d]pyrimidin-4-yl)morpholine], the cytotoxicity at 100 µg/mL in series [1] was determined as 31 ± 1.3%; with A549 lung cancer cells (Homo sapiens, A549, 72 h), 22.7 ± 0.9%; with HePG2 liver cancer cells, 16.4 ± 1.6%; in series [2] it was 54.2 ± 1.2%; in series [3] it was 2.1 ± 0.6%; in the series with MCF7 breast cancer cells (setting [5]) it was 41.2 ± 1.5%. The cytotoxicity at 72 h, 100 μg/ml in series [4] worked out at 3.2 ± 1.5%.

For `Clc1ccc(-n2c(Cl)c(-c3ccc(Br)cc3)c3c(N4CCCC4)ncnc32)c(Cl)c1` [Compound 11a, 5-(4-bromophenyl)-6-chloro-7-(2,4-dichlorophenyl)-4-(pyrrolidin-1-yl)-7H-pyrrolo[2,3-d]pyrimidine], in series [1], the IC50 was found to be 55.4 ± 1.4 µg/mL (≈ 106 µM). Also, the cytotoxicity at 100 µg/mL in series [1] was determined as 84.3 ± 1.7%; with A549 lung cancer cells (Homo sapiens, A549, 72 h) it was 11.8 ± 0.6%; in the series on HePG2 liver cancer cells it was 7.2 ± 1.3%; in series [2], 44.2 ± 0.8%; in series [3], 12.5 ± 1.4%; in the series with MCF7 breast cancer cells (setting [5]), 65.2 ± 1%. In series [4], the cytotoxicity at 72 h, 100 μg/ml came to 47.3 ± 1.3%.

As for `Clc1ccc(-n2c(Cl)c(-c3ccc(Br)cc3)c3c(Cl)ncnc32)c(Cl)c1` [Compound 4a, 5-(4-bromophenyl)-4,6-dichloro-7-(2,4-dichlorophenyl)-7H-pyrrolo[2,3-d]pyrimidine], the half-maximal inhibitory concentration (IC50) in series [1] was 24.1 ± 1 µg/mL (≈ 49.4 µM); with A549 lung cancer cells (Homo sapiens, A549, 72 h, read-out: IC50 A549), 68.9 ± 0.5 µg/mL (≈ 141 µM); in the series on MCF7 breast cancer cells, 32.4 ± 0.8 µg/mL (≈ 66.4 µM). Besides, the cytotoxicity at 100 µg/mL was 100% in series [1]; 80 to 90% with A549 lung cancer cells (Homo sapiens, A549, 72 h); 43.5 ± 2.2% in the series on HePG2 liver cancer cells; 74.2 ± 2.5% in series [2]; 53 ± 0.7% in series [3]; 100% in the series with MCF7 breast cancer cells (setting [5]). The cytotoxicity in the series on A549 lung cancer cells (read-out: MTT cell proliferation mortality assay (%) A549, at 100 μg/ml, 72 h) is 79.4 ± 1.6%. In series [4], the cytotoxicity at 72 h, 100 μg/ml worked out at 74.6 ± 0.6%.

`Clc1ccc(-n2cc(-c3ccc(Br)cc3)c3c(Cl)ncnc32)c(Cl)c1` [Compound 5, 5-(4-bromophenyl)-4-chloro-7-(2,4-dichlorophenyl)-7H-pyrrolo[2,3-d]pyrimidine]: the cytotoxicity at 100 µg/mL in series [1] was found to be 29.3 ± 0.8%; in the series with A549 lung cancer cells (Homo sapiens, A549, 72 h), 25.1 ± 0.7%; in the series on HePG2 liver cancer cells it was 34.5 ± 2.9%; in series [2], 60.4 ± 0.9%; in series [3], 42.3 ± 1.3%; with MCF7 breast cancer cells (setting [5]) it was 27.9 ± 1.2%. Also, the cytotoxicity at 72 h, 100 μg/ml in series [4] was determined as 16.3 ± 2%.

`COc1ccc(-c2c(Cl)n(-c3ccc(Cl)cc3Cl)c3ncnc(N4CCCC4)c23)cc1OC` [Compound 11b, 6-chloro-7-(2,4-dichlorophenyl)-5-(3,4-dimethoxyphenyl)-4-(pyrrolidin-1-yl)-7H-pyrrolo[2,3-d]pyrimidine]: the cytotoxicity at 100 µg/mL in series [1] was 25.6 ± 0.9%; with A549 lung cancer cells (Homo sapiens, A549, 72 h) it was 11.6 ± 0.9%; in the series with HePG2 liver cancer cells, 63.1 ± 0.5%; in series [2], 33.5 ± 0.4%; in series [3], 94.6 ± 1.3%; in the series with MCF7 breast cancer cells (setting [5]), 80.4 ± 1.8%. Also, the figures for the IC50 (in series [3]; with MCF7 breast cancer cells) were 27.7 ± 0.1 µg/mL (≈ 55 µM) and 48.4 ± 0.8 µg/mL (≈ 96.1 µM), respectively. The cytotoxicity in the series on MCF7 breast cancer cells (read-out: MTT cell proliferation mortality assay (%) MCF7, at 100 μg/ml, 72 h) was in the range of 80 to 95%. Besides, in series [4], the cytotoxicity at 72 h, 100 μg/ml amounted to 56.9 ± 0.1%.

Regarding `S=c1[nH]cnc2c1c(-c1ccc(Br)cc1)c(Cl)n2-c1ccc(Cl)cc1Cl` [Compound 12, 5-(4-bromophenyl)-6-chloro-7-(2,4-dichlorophenyl)-3,7-dihydro-4H-pyrrolo[2,3-d]pyrimidine-4-thione], the IC50 in series [1] amounted to 59.7 ± 0.7 µg/mL (≈ 123 µM); in the series with MCF7 breast cancer cells, 11.9 ± 0.9 µg/mL (≈ 24.5 µM). The cytotoxicity at 100 µg/mL turned out to be 81.5 ± 1.2% in series [1]; 71.3 ± 1.6% in the series on A549 lung cancer cells (Homo sapiens, A549, 72 h); 26.3 ± 3.4% with HePG2 liver cancer cells; 64.3 ± 1.1% in series [2]; 3.1 ± 0.2% in series [3]; 100% with MCF7 breast cancer cells (setting [5]). In addition, the cytotoxicity at 72 h, 100 μg/ml in series [4] came out at 100%.

For the molecule `COc1ncnc2c1c(-c1ccc(Br)cc1)c(Cl)n2-c1ccc(Cl)cc1Cl` [Compound 9a, 5-(4-bromophenyl)-6-chloro-7-(2,4-dichlorophenyl)-4-methoxy-7H-pyrrolo[2,3-d]pyrimidine], the cytotoxicity at 100 µg/mL amounted to 1.3 ± 0.2% in series [1]; 58.6 ± 1.3% in the series with A549 lung cancer cells (Homo sapiens, A549, 72 h); 52.1 ± 0.8% in series [2]; 53.8 ± 0.3% in series [3]; 75.2 ± 3.6% in the series with MCF7 breast cancer cells (setting [5]). The cytotoxicity at 72 h, 100 μg/ml in series [4] was 37.8 ± 0.6%.

As to `Clc1ccc(-n2c(Cl)c(-c3ccc(Br)cc3)c3c(N4CCCC4)nc(C(Cl)(Cl)Cl)nc32)c(Cl)c1` [Compound 10, 5-(4-bromophenyl)-6-chloro-7-(2,4-dichlorophenyl)-4-(pyrrolidin-1-yl)-2-(trichloromethyl)-7H-pyrrolo[2,3-d]pyrimidine], the cytotoxicity at 100 µg/mL in series [1] amounted to 100%; with A549 lung cancer cells (Homo sapiens, A549, 72 h) it was 10.2 ± 0.5%; in series [2], 100%; in series [3] it was 100%; in the series with MCF7 breast cancer cells (setting [5]), 100%. Moreover, the IC50 in series [2] was 26.9 ± 0.6 µg/mL (≈ 42 µM); in series [3], 11.6 ± 0.8 µg/mL (≈ 18.1 µM); in the series with MCF7 breast cancer cells it was 61.1 ± 1.4 µg/mL (≈ 95.5 µM). Further, the cytotoxicity at 72 h, 100 μg/ml in series [4] amounted to 100%.

Regarding `CSc1ncnc2c1c(-c1ccc(Br)cc1)c(Cl)n2-c1ccc(Cl)cc1Cl` [Compound 13, 5-(4-bromophenyl)-6-chloro-7-(2,4-dichlorophenyl)-4-(methylthio)-7H-pyrrolo[2,3-d]pyrimidine], the cytotoxicity at 100 µg/mL in series [1] was determined as 58.8 ± 1.2%; in the series on A549 lung cancer cells (Homo sapiens, A549, 72 h) it was 42.6 ± 1.2%; in the series on HePG2 liver cancer cells it was 12.4 ± 1.9%; in series [2], 60.2 ± 1%; in series [3], 32.2 ± 1.7%; with MCF7 breast cancer cells (setting [5]), 3.5 ± 0.6%. Moreover, the cytotoxicity at 72 h, 100 μg/ml in series [4] turned out to be 25.3 ± 0.4%.

Regarding `Cc1nc2c(c(-c3ccc(Br)cc3)cn2-c2ccc(Cl)cc2Cl)c(=O)[nH]1` [Compound 6, 5-(4-bromophenyl)-7-(2,4-dichlorophenyl)-2-methyl-3,7-dihydro-4H-pyrrolo[2,3-d]pyrimidin-4-one], the IC50 was found to be 40 ± 1 µg/mL (≈ 89.1 µM) in series [1], 31.2 ± 0.9 µg/mL (≈ 69.5 µM) in series [2], 31.1 ± 0.9 µg/mL (≈ 69.2 µM) in series [3] and 15.2 ± 0.9 µg/mL (≈ 33.8 µM) in the series on MCF7 breast cancer cells. The cytotoxicity at 100 µg/mL (in series [1]; in series [2]; in series [3]; with MCF7 breast cancer cells (setting [5])) was 100% throughout. Further, the cytotoxicity at 72 h, 100 μg/ml in series [4] is 84.9 ± 0.7%.

As to `COc1ccc(-c2c(Cl)n(-c3ccc(Cl)cc3Cl)c3ncnc(OC)c23)cc1OC` [Compound 9b, 6-chloro-7-(2,4-dichlorophenyl)-5-(3,4-dimethoxyphenyl)-4-methoxy-7H-pyrrolo[2,3-d]pyrimidine], the cytotoxicity at 100 µg/mL in series [1] stood at 2.5 ± 0.3%; with HePG2 liver cancer cells it was 63.8 ± 0.6%; in series [2], 45.6 ± 3.2%; in the series on MCF7 breast cancer cells (setting [5]), 100%.

Source of the values: PMC10463376, “Design, synthesis, in vitro anticancer, molecular docking and SAR studies of new series of pyrrolo[2,3-d]pyrimidine derivatives” (BMC Chemistry, 2023).
